Assay results taken from PMC5591244, “Novel selective, potent naphthyl TRPM8 antagonists identified through a combined ligand- and structure-based virtual screening approach” (Scientific Reports, 2017).

Tests used:
Assay type in all cases: cell-based
TRPM8 = biological target: T1, TRPM8 (Homo sapiens, UniProt Q7Z2W7); assay: Calcium mobilization assay (HTS and dose-response) on HEK-293/hTRPM8 cells; conditions: for Max inhibition: HTS campaign, Cooling agent 10 30 μM, %inhibition values obtained at 10 mM (so in the source)
T1 construct: expressed in transfected cells
Method: All experiments were performed on HEK-293/hTRPM8 cells stably transfected with the human TRPM8 gene, except for site-directed mutagenesis analysis, which was performed on transient transfectants. In details, HEK-293 cells (ATCC, Manassas, Virginia) were transfected with the pcDNA3/hTRPM8 vector by electroporation (300 Volts, 950 µF) then selected with medium containing 0,8 mg/ml G418 for 10–15 days. Then the stable transfected pool underwent two rounds of limiting dilutions, in eight 96 well plates at a cell density of 1 cell/well, in order to obtain pure clones. The best responder clone was selected based on its response to 1 mM menthol in calcium mobilization experiments. HEK-293/hTRPM8 cells were maintained in EMEM (Minimum Essential Medium Eagle with Earl’s salts Balanced Salt Solution, LONZA) supplemented with 2 mM Ultraglutamine1 (Lonza), 1% Penicillin/Streptomycin (LONZA), 10% of Fetal Bovine Serum (Euroclone) and 0,4 mg/mL G418 (InvivoGen).
For calcium mobilization assays, cells were seeded at 10,000 cells/well in 384-well plates coated with poly-D-lysine (MATRIX black/clear bottom #4332-CPL, Thermo Scientific, Waltham, MA, USA) in complete medium.Twenty-four hours after seeding, the plates were washed with Tyrode’s buffer with a Bio-Tek-ELx405 Microplate Washer (Merck Millipore; Billerica, MA, USA), and then 10 µl/well of a solution containing the fluorescent Ca^2+ indicator Fluo-4 NW dye was added. Cells were incubated for 1 h at room temperature before test compounds were added at 3X the concentration with respect to the final wanted concentration to be tested with a FLIPR TETRA system (Molecular Devices, Sunnyvale, CA, USA). Calcium mobilization was monitored over a period of 5 min. A second injection of 10 µl/well of a reference agonist (icilin or Cooling agent 10) at 4X concentration in assay buffer was performed using the FLIPR TETRA system. Of note, for selectivity assays, the following agonists were used: 10 μM AITC (allyl isothiocyanate) for TRPA1; 100 nM Capsaicin for TRPV1; and 20 nM GSK1016790A for TRPV4.
After addition of the agonist, the fluorescence signal was recorded over the next 3 min. The bioactivity exerted by the compounds was expressed as a percentage of inhibition. The percentage scale is defined as follows: 100% inhibition was considered as the relative fluorescence units (RFUs) of the value of the MIN controls in the second injection (antagonist Capsazepine at IC100 = 50 µM) and 0% inhibition was considered as the RFU values of the value of the MAX controls in the second injection (Cooling agent 10 at EC80 = 30 µM). Data from four replicates were analyzed using GraphPad PRISM® software (version 5, GraphPad Software Inc.) to calculate the mean and standard error of the mean, to create sigmoidal concentration-response curves and to calculate IC50 values.

TRPM8 I746A = biological target: T2, TRPM8 I746A (Homo sapiens, UniProt Q7Z2W7, I746A); assay: Calcium mobilization on transiently transfected TRPM8 I746A mutant; conditions: agonist calcium response, I746A
T2 construct: expressed in transfected cells; host or cells: HEK-293, transient (Lipofectamine 2000)
From the text: (§1) Single point mutations were introduced in the hTRPM8-coding sequence, and the mutated TRPM8 was cloned as N-terminal c-myc tagged version into the pcDNA3 expression vector. This was done in that way that the single variations could be easily swapped from the myc-tagged expression construct into the non-tagged TRPM8 wild type expression construct.
(§2) The list of the variants is the following: variant 1, t2233g, a2234c (=Y745A); variant 2, a2236g, t2237c (=I746A); variant 3, a2395g, a2396c (=N799A) and variant 4, a2405c (D802A). The cloning project comprised three steps. First of all, a unique XhoI restriction site was inserted by site-directed mutagenesis (SDM) using DNA of the pcDNA3_TRPM8 construct as template. The 0.6 kb DNA fragment between the unique 5′ XhoI (introduced) and 3′ BamHI (already present) restriction sites comprised all positions of the four single point mutations and could be later used for their insertion as well as swapping between myc-tagged and non-tagged TRPM8 versions. In a second step, the c-myc tag sequence was introduced embedded within the TRPM8 coding sequence by PCR primers in two partially overlapping PCRs that were then joined by bridge PCR with the external 5′KpnI and internal 3′EcoRI primers and in the last step the point mutations 1 to 4 were inserted into pcDNA3_c-myc-TRPM8 by exchanging the wild type 5′XhoI-3′BamHI fragment (0.6 kb) with each of the corresponding variation fragment derived from synthetic DNA (provided by GeneArt, ThermoFisher Scientific).The myc-tagged constructs were transiently transfected in HEK-293 cells with Lipofectamine 2000 (Invitrogen) according to the manufacturer’s protocol. The pcDNA vectors containing the wt myc-tagged TRPM8 gene and the empty pcDNA3 (mock) were separately transfected into HEK-293 cells as controls. Cells were transfected and seeded on the same day at 17,500 cells/well in poly-D-lysine-coated 384-well plates (MATRIX #4332-CPL). Twenty-four hours after seeding, the activity of transfected TRPM8 receptors was tested using the calcium mobilization assay as described above. The analysis was performed on the basis of ΔF/F° (normalized MAX-MIN), where ΔF is the MAX between time points 117 and 182 minus the MIN between time points TP114 and TP116, and F° is the basal signal at time point TP0. The obtained data from at least four wells (as replicates) were analyzed with GraphPad PRISM® software (version 5, GraphPad Software Inc.) to calculate the mean and standard error of the mean[58], to create sigmoidal concentration-response curves and to calculate IC50 values.

TRPM8 N799A = biological target: T3, TRPM8 N799A (Homo sapiens, UniProt Q7Z2W7, N799A); assay: Calcium mobilization on transiently transfected TRPM8 N799A mutant; conditions: agonist calcium response, N799A
T3 construct: expressed in transfected cells; host or cells: HEK-293, transient (Lipofectamine 2000)
From the text: as §1, §2

TRPM8 Y745A = biological target: T4, TRPM8 Y745A (Homo sapiens, UniProt Q7Z2W7, Y745A); assay: Calcium mobilization on transiently transfected TRPM8 Y745A mutant; conditions: agonist calcium response
T4 construct: expressed in transfected cells; host or cells: HEK-293, transient (Lipofectamine 2000)
From the text: as §1
as §2, with “Cells were transfected and seeded on the same day at 17,500 cells/well in poly-D-lysine-coated 384-well plates (MATRIX #4332-CPL). Twenty-four hours after seeding, the activity of transfected TRPM8 receptors was tested using the calcium mobilization assay as described above. The analysis was performed on the basis of ΔF/F° (normalized MAX-MIN), where ΔF is the MAX between time points 117 and 182 minus the MIN between time points TP114 and TP116, and F° is the basal signal at time point TP0.” left out

wt TRPM8 = biological target: T5, wt TRPM8 (Homo sapiens, UniProt Q7Z2W7); assay: Calcium mobilization on HEK-293 cells transiently transfected with wt myc-tagged TRPM8; conditions: agonist calcium response, wt; read-out: pIC50 of the agonist (agonist dose response), wt TRPM8 (converted)
T5 construct: expressed in transfected cells; host or cells: HEK-293, transient (Lipofectamine 2000)
From the text: as §1
The list of the variants is the following: variant 1, t2233g, a2234c (=Y745A); variant 2, a2236g, t2237c (=I746A); variant 3, a2395g, a2396c (=N799A) and variant 4, a2405c (D802A). The cloning project comprised three steps. First of all, a unique XhoI restriction site was inserted by site-directed mutagenesis (SDM) using DNA of the pcDNA3_TRPM8 construct as template. The 0.6 kb DNA fragment between the unique 5′ XhoI (introduced) and 3′ BamHI (already present) restriction sites comprised all positions of the four single point mutations and could be later used for their insertion as well as swapping between myc-tagged and non-tagged TRPM8 versions. […] The obtained data from at least four wells (as replicates) were analyzed with GraphPad PRISM® software (version 5, GraphPad Software Inc.) to calculate the mean and standard error of the mean[58], to create sigmoidal concentration-response curves and to calculate IC50 values.

TRPM8 D802A = biological target: T6, TRPM8 D802A (Homo sapiens, UniProt Q7Z2W7, D802A); assay: Calcium mobilization on transiently transfected TRPM8 D802A mutant; conditions: agonist calcium response, D802A
T6 construct: expressed in transfected cells; host or cells: HEK-293, transient (Lipofectamine 2000)
From the text: as §1
as §2, with “Cells were transfected and seeded on the same day at 17,500 cells/well in poly-D-lysine-coated 384-well plates (MATRIX #4332-CPL). Twenty-four hours after seeding, the activity of transfected TRPM8 receptors was tested using the calcium mobilization assay as described above. The analysis was performed on the basis of ΔF/F° (normalized MAX-MIN), where ΔF is the MAX between time points 117 and 182 minus the MIN between time points TP114 and TP116, and F° is the basal signal at time point TP0.” left out

T1 sequence (Q7Z2W7 whole entry): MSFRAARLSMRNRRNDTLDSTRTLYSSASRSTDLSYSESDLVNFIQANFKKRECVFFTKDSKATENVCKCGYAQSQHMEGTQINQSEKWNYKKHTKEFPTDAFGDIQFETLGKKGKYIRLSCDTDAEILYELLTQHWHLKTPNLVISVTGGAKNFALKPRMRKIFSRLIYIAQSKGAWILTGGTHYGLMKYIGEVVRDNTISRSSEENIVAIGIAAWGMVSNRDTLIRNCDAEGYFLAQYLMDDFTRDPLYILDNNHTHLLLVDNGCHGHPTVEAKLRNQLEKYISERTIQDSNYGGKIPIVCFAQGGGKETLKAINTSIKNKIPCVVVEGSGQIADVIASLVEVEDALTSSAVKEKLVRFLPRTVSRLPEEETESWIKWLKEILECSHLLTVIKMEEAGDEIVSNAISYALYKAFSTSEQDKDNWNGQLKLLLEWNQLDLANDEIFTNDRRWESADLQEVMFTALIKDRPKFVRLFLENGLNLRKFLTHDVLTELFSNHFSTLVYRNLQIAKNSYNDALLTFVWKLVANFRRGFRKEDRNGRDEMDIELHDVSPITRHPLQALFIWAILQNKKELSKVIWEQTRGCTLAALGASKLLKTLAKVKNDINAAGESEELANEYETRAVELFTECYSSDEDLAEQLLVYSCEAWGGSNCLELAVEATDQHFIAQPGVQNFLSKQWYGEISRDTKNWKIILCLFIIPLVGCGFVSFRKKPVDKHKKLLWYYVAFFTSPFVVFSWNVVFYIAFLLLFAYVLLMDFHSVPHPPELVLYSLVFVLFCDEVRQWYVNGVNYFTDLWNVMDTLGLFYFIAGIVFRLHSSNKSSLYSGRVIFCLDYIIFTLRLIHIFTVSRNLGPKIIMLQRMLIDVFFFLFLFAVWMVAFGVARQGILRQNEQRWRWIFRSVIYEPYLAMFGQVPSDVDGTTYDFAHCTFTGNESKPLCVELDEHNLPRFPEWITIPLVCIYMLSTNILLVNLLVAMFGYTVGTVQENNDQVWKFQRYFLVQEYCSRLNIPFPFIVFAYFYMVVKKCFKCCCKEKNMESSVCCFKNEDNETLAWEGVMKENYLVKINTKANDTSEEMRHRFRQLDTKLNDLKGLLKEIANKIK
T4 sequence (Q7Z2W7 whole entry Y745A): as the sequence (Q7Z2W7 whole entry) above, with Y745A counted along it
T2 sequence (Q7Z2W7 whole entry I746A): as the sequence (Q7Z2W7 whole entry) above, with I746A counted along it
T3 sequence (Q7Z2W7 whole entry N799A): as the sequence (Q7Z2W7 whole entry) above, with N799A counted along it
T6 sequence (Q7Z2W7 whole entry D802A): as the sequence (Q7Z2W7 whole entry) above, with D802A counted along it
T5 sequence (Q7Z2W7 whole entry): as the sequence (Q7Z2W7 whole entry) above

SMILES	Max inhibition (TRPM8) [%]	Agonist activity on I746A mutant (words) (TRPM8 I746A)	Agonist activity on N799A mutant (words) (TRPM8 N799A)	Agonist activity on Y745A mutant (words) (TRPM8 Y745A)	other results
Oc1cc2c(cc1O)CN(C(=S)NCCc1ccc(Cl)cc1)CCC2 [Capsazepine, reference compound]	–	–	–	–	IC100 (TRPM8; MIN control antagonist): 50 µM
O=C(NCOCc1ccc2ccccc2c1)c1cccnc1 [Compound 2]	7.92	–	–	–	–
O=C(COc1ccc2ccccc2c1)NCc1cccnc1 [Compound 3]	0.00	–	–	–	–
O=C(NCOCc1ccc2ccccc2c1)c1cncc(Br)c1 [Compound 4]	0.00	–	–	–	–
CC1CCC(C(C)C)C(OCC(O)CO)C1 (stereo not drawn) [Cooling agent 10]	–	minimal residual activation	did not affect either maximal TRPM8 activation or EC50	completely abolished the activation	EC80 (TRPM8; MAX control agonist): 30 µM; Agonist activity on I746A mutant (words) (TRPM8 I746A; listed as Cooling Agent 10): strongly reduced agonist activity
O=C1NC(c2cccc([N+](=O)[O-])c2)=CCN1c1ccccc1O [Icilin, icilin]	–	minimal residual activation	abrogated agonist activity	abrogated agonist activity	EC50 (wt TRPM8): 0.251 µM; EC50 (TRPM8 I746A; read-out: pIC50 of the agonist (agonist dose response), I746A (converted)): 0.126 µM; Agonist activity on D802A mutant (words) (TRPM8 D802A): abrogated agonist activity; Agonist activity on D802A mutant (words) (TRPM8 D802A; listed as icilin): completely abolished TRPM8 activation; Agonist activity on N799A mutant (words) (TRPM8 N799A; listed as icilin): completely abolished TRPM8 activation; Agonist activity on Y745A mutant (words) (TRPM8 Y745A; listed as icilin): completely abolished the activation
